What follows are compounds tested against human T-type calcium channels (human Cav3.2) (Homo sapiens (Human), UniProt O95180) (assay: Antagonistic activity against T-type calcium channels (Cav3.2), Fura2 intracellular calcium assay in HEK293 cells). Conditions: not given.
Sequence of human T-type calcium channels (human Cav3.2) (O95180 whole entry): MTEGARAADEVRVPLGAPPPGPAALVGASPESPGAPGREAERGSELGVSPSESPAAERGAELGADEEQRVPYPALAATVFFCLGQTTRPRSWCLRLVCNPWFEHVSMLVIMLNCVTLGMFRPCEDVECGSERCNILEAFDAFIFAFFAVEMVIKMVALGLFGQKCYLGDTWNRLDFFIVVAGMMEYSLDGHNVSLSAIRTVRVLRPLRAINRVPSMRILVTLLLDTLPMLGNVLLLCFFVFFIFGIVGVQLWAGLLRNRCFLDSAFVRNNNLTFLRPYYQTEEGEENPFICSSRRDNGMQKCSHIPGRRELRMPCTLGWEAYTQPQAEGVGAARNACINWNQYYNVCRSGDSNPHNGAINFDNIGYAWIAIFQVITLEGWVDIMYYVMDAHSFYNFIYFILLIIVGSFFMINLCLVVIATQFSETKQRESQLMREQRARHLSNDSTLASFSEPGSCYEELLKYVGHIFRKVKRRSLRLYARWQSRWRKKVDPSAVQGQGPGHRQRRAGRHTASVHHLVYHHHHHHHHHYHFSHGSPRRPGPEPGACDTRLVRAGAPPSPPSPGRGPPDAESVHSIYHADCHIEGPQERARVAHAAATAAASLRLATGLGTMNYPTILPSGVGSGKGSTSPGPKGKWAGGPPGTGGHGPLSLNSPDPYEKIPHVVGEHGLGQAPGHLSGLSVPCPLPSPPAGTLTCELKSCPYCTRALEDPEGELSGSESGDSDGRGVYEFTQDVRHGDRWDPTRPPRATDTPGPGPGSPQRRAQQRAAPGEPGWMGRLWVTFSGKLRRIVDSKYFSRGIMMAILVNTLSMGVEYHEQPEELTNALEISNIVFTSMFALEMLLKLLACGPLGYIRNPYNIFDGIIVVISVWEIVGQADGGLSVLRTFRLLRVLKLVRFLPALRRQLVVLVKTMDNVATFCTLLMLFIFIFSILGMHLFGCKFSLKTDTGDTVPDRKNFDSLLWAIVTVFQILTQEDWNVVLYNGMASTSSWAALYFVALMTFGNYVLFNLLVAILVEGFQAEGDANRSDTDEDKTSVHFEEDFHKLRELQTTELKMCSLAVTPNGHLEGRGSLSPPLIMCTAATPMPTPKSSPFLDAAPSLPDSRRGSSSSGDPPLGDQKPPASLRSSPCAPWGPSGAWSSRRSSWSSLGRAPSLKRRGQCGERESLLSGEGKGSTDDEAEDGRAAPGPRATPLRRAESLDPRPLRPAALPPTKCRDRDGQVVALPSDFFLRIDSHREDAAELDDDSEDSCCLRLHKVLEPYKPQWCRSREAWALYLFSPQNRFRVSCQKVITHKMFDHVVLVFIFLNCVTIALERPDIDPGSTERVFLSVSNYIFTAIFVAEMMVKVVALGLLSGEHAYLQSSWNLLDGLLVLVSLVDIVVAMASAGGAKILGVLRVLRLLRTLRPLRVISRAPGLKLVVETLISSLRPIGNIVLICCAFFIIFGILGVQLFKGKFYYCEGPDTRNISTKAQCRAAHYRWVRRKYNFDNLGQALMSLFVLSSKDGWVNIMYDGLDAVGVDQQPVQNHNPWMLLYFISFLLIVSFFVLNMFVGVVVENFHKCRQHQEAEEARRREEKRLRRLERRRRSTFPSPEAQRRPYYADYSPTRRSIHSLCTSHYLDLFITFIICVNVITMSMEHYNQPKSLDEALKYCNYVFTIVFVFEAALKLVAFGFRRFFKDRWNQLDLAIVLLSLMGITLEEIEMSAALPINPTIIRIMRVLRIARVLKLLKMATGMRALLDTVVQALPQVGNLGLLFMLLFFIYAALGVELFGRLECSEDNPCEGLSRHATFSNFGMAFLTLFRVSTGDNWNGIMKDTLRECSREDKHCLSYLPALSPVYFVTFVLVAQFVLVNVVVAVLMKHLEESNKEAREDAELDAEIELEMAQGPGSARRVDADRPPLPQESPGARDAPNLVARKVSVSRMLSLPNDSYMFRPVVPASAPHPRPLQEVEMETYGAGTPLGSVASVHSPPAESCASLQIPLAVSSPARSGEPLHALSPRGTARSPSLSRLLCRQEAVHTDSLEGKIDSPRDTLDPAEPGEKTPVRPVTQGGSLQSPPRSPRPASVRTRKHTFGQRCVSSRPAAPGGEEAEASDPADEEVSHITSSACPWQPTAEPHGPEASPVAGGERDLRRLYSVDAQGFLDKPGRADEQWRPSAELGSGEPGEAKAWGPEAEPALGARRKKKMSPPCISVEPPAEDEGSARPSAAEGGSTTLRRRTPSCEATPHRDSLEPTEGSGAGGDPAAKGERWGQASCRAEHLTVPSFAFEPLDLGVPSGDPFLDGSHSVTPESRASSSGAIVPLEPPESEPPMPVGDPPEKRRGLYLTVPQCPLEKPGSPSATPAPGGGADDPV
Type: cell-based
Experimental: For representative compounds of the present invention, the antagonistic activity against T-type calcium channels (Cav3.2) was examined by the Test Examples described below. For the respective tests, human embryo kidney cells (HEK293 cells) in which human T-type calcium channels (human Cav3.2) were stably expressed were used.
The HEK293 cells having human Cav3.2 stably expressed therein were cultured at 37° C. in Alpha-MEM, to which 10% (v/v) fetal bovine serum (FBS), penicillin (100 U/mL), streptomycin (100 μg/mL), and G418 ([…]) had been added. The cells were suspended in the culture liquid and were inoculated onto a 96-well plate. Subsequently, the cells were cultured for 48 hours. The culture liquid was removed, and the liquid was changed to S-MEM, to which 5% (v/v) FBS, calcium chloride (0.5 mmol/L), L-glutamine (2 mmol/L), L-alanine (8.9 ng/mL), L-asparagine (13.2 ng/mL), L-aspartic acid (1.33 ng/mL), L-glutamic acid (14.7 ng/mL), glycine (7.5 ng/mL), L-proline (11.5 ng/mL, L-serine (10.5 ng/mL), penicillin (100 U/mL), and streptomycin (100 μg/mL) had been added. The cells were cultured for another 24 hours. The culture liquid was removed again, and the cells were washed with an assay buffer (140 mmol/L sodium chloride, 5 mmol/L potassium chloride, 0.5 mmol/L magnesium chloride, 0.5 mmol/L calcium chloride, 10 mmol/L glucose, 0.4 mmol/L magnesium sulfate, 10 mmol/L HEPES, and […] sulfinpyrazone, pH 7.4) that had been kept warm at 37° C. Subsequently, an assay buffer prepared by dissolving Fura2-AM, which is a fluorescent Ca^2+ indicator, to a concentration of 5 μM, was added to the cells, and the system was incubated for 30 minutes at 37° C. The assay buffer having Fura2 dissolved therein was removed, and the cells were washed with the assay buffer. Subsequently, an assay buffer prepared by adding a test compound was added to the cells, and the system was incubated for 15 minutes. The plate was mounted on a fluorescence analyzer (FLEX STATION II, Molecular Devices, LLC), and the baseline was measured for 20 seconds. Subsequently, any change in the intracellular calcium concentration that was induced when an assay buffer prepared by adding 100 mmol/L calcium chloride was added to the cells, was measured (excited at 340 nm or 380 nm, and detected at 510 nm). The fluorescence intensity ratios obtainable at the respective wavelengths were calculated.
Meanwhile, the test compound solution was prepared by dissolving each test compound in DMSO to a concentration of 10 mmol/L, and then adjusting the concentration with the assay buffer so as to obtain the set concentration. For the control solution, DMSO was used instead of a test compound.
The inhibitory activity level (%) of a test compound was calculated by subtracting the average value of the fluorescence intensity ratio for a period of 0 to 20 seconds after initiation of measurement, from the average value of the fluorescence intensity ratio for a period of 45 to 50 seconds after initiation of measurement, taking the value obtained using the control solution as the maximum activity of Cav3.2, and comparing this value with the activity in the presence of the test compound.
Calculation of IC50 Value:
The inhibitory activity of each test compound was measured at concentrations of […], and the IC50 value was calculated using the curve fitting formula (Model 08: sigmoidal inhibition curve) of ASSAY EXPLORER (Symyx Technologies, Inc.).
Average of RFU value obtained for 25 to 30 seconds after the addition of a […] assay buffer after treatment with the control solution (for 45 to 50 seconds after the initiation of measurement). The RFU in the formula represents the Relative Fluorescence Unit.
In the case of `CC(C)(C)NC(=O)CN1[C@@H]2CC[C@H]1C[C@H](CNC(=O)CC13CC4CC(CC(C4)C1)C3)C2` [Example 18], the IC50 is reported as 73 nM.
`COc1ccc2oc(C)c(C(=O)NC[C@@H]3C[C@H]4CC[C@@H](C3)N4CC(=O)NC(C)(C)C)c2c1` [Example 86] gave an IC50 of 91 nM.
With `COc1cc(F)c2nc(C[C@@H]3C[C@H]4CC[C@@H](C3)N4CC(=O)NC(C)(C)C)[nH]c2c1` [Example 154] the IC50 was 78 nM.
In the case of `CC(C)(C)NC(=O)CN1[C@@H]2CC[C@H]1C[C@H](CNC(=O)c1ccc(Cl)cc1)C2` [Example 77], the IC50 is reported as 22 nM.
`Cn1cc(C(=O)NC[C@@H]2C[C@H]3CC[C@@H](C2)N3CC(=O)NC(C)(C)C)c2ccccc21` [Example 24] showed an IC50 of 78 nM.
`CC(C)(C)NC(=O)CN1[C@@H]2CC[C@H]1C[C@H](CNC(=O)C13CC4CC(CC1C4)C3)C2` [Example 107] was tested, and the IC50 was 49 nM.
For `O=C(CN1[C@@H]2CC[C@H]1C[C@H](CNC(=O)C13CC4CC(CC1C4)C3)C2)NC1(CO)CCCC1` [Example 109], the IC50 was 94 nM.
For `CCn1cc(C(=O)NC[C@@H]2C[C@H]3CC[C@@H](C2)N3CC(=O)NC(C)(C)C)c2ccccc21` [Example 36], the IC50 was 49 nM.
`CC(C)(C)NC(=O)CN1[C@@H]2CC[C@H]1C[C@H](CNC(=O)C(C)(C)Oc1cccc(Cl)c1)C2` [Example 31] was tested, and the IC50 was 73 nM.
`Cn1cc(C(=O)NC[C@@H]2C[C@H]3CC[C@@H](C2)N3CC(=O)NC2(C(F)(F)F)CC2)c2ccccc21` [Example 45] gave an IC50 of 103 nM.
`Cc1oc2c(c1C(=O)NC[C@@H]1C[C@H]3CC[C@@H](C1)N3CC(=O)NC1(C(F)(F)F)CC1)CCCC2` [Example 95] showed an IC50 of 88 nM.
For `Cc1oc2c(c1C(=O)NC[C@@H]1C[C@H]3CC[C@@H](C1)N3CC(=O)NC(C)(C)C)CCCC2` [Example 19], the IC50 was 48 nM.
For `CC(C)(C)NC(=O)CN1[C@@H]2CC[C@H]1C[C@H](CNC(=O)C1CCCCC1)C2` [Example 74], the IC50 was 101 nM.
`CC(C)(C)NC(=O)CN1[C@@H]2CC[C@H]1C[C@H](CNC(=O)c1cc(F)cc(C#N)c1)C2` [Example 79] showed an IC50 of 45 nM.
In the case of `COc1cc(F)cc(C(=O)NC[C@@H]2C[C@H]3CC[C@@H](C2)N3CC(=O)NC(C)(C)C)c1` [Example 56], the IC50 is reported as 34 nM.
`Cc1oc2ccccc2c1C(=O)NC[C@@H]1C[C@H]2CC[C@@H](C1)N2CC(=O)NC(C)(C)C` [Example 85] was tested, and the IC50 was 15 nM.
With `CC(C)(C)NC(=O)CN1[C@@H]2CC[C@H]1C[C@H](CNC(=O)c1cccc(F)c1)C2` [Example 113] the IC50 was 39 nM.
`CCc1oc2ccccc2c1C(=O)NC[C@@H]1C[C@H]2CC[C@@H](C1)N2CC(=O)NC(C)(C)C` [Example 84] was tested, and the IC50 was 10 nM.
Work on `Cc1c(C(=O)NC[C@@H]2C[C@H]3CC[C@@H](C2)N3CC(=O)NC(C)(C)C)c2ccccc2n1C` [Example 37] yielded an IC50 of 67 nM.

Same assay, conditions: HEK293 cells stably expressing human Cav3.2; Fura2 fluorescence ratio after calcium chloride addition; read-out: IC50
`COc1cccc2[nH]c(C[C@@H]3C[C@H]4CC[C@@H](C3)N4CC(=O)NC(C)(C)C)nc12` [Example 124] was tested, and the IC50 was 96 nM.
`CC(C)(C)NC(=O)CN1[C@@H]2CC[C@H]1C[C@H](CNC(=O)C(C)(C)Oc1ccccc1)C2` [Example 28] showed an IC50 of 65 nM.
For `CC(C)(C)NC(=O)CN1[C@@H]2CC[C@H]1C[C@H](CNC(=O)C(C)(C)Oc1ccc(C3CC3(Cl)Cl)cc1)C2` (stereo partly drawn) [Example 27], the IC50 was 94 nM.
`Cn1nc(C(C)(C)C)cc1C(=O)NC[C@@H]1C[C@H]2CC[C@@H](C1)N2CC(=O)NC(C)(C)C` [Example 69] showed an IC50 of 51 nM.
Compound `CC(C)(C)NC(=O)CN1[C@@H]2CC[C@H]1C[C@H](CNC(=O)c1cccc(Cl)c1)C2` [Example 52] has an IC50 of 48 nM.
With `CC(C)(C)NC(=O)CN1[C@@H]2CC[C@H]1C[C@H](CC(=O)NC13CC4CC(CC(C4)C1)C3)C2` [Example 4, N-(Adamantan-1-yl)-2-[(exo)-8-(tert-butylcarbamoyl)methyl-8-azabicyclo[3.2.1]octan-3-yl]acetamide] the IC50 was 82 nM.
With `CC(C)(C)NC(=O)CN1[C@@H]2CC[C@H]1C[C@H](CC(=O)Nc1cccc(Cl)c1)C2` [Example 1, 2-[(exo)-8-(tert-Butylcarbamoyl)methyl-8-azabicyclo[3.2.1]octan-3-yl]-N-(3-chlorophenyl)acetamide] the IC50 was 68 nM.
Work on `CC(C)(C)CCC(=O)NC[C@@H]1C[C@H]2CC[C@@H](C1)N2CC(=O)NC(C)(C)C` [Example 71] yielded an IC50 of 64 nM.
With `O=C(CN1[C@@H]2CC[C@H]1C[C@H](CNC(=O)c1cc(F)cc(Cl)c1)C2)NC1(C(F)(F)F)CC1` [Example 114] the IC50 was 70 nM.
Compound `CC1(NC(=O)CN2[C@@H]3CC[C@H]2C[C@H](CNC(=O)c2cc(F)cc(Cl)c2)C3)COC1` [Example 112] has an IC50 of 93 nM.
For `COc1cc(F)cc(NC(=O)C[C@@H]2C[C@H]3CC[C@@H](C2)N3CC(=O)NC(C)(C)C)c1` [Example 3], the IC50 was 69 nM.
In the case of `CC(C)(C)NC(=O)CN1[C@@H]2CC[C@H]1C[C@@H](CNC(=O)C13CC4CC(CC(C4)C1)C3)C2` [Example 144, N-[(endo)-8-(tert-Butylcarbamoyl)methyl-8-azabicyclo[3.2.1]octan-3-yl]methyladamantane-1-carboxamide], the IC50 is reported as 44 nM.
Work on `COc1cc(C)cc(C(=O)NC[C@@H]2C[C@H]3CC[C@@H](C2)N3CC(=O)NC(C)(C)C)c1` [Example 72] yielded an IC50 of 55 nM.
In the case of `CC(C)(C)NC(=O)CN1[C@@H]2CC[C@H]1C[C@H](CNC(=O)C13CC4CC(CC(C4)C1)C3)C2` [Example 65], the IC50 is reported as 99 nM.
`Cc1cccc2[nH]c(C[C@H]3C[C@H]4CC[C@@H](C3)N4CC(=O)NC(C)(C)C)nc12` [Example 147] showed an IC50 of 83 nM.
Work on `Cc1cc(C(=O)NC[C@@H]2C[C@H]3CC[C@@H](C2)N3CC(=O)NC(C)(C)C)n(C)n1` [Example 23] yielded an IC50 of 203 nM.
With `CC(C)(C)NC(=O)CN1[C@@H]2CC[C@H]1C[C@H](CNC(=O)c1coc3ccccc13)C2` [Example 11, N-[(exo)-8-(tert-Butylcarbamoyl)methyl-8-azabicyclo[3.2.1]octan-3-yl]methylbenzofuran-3-carboxamide] the IC50 was 3 nM.
`CC(C)(C)NC(=O)CN1[C@@H]2CC[C@H]1C[C@H](CNC(=O)c1csc3c1CCCC3)C2` [Example 16] showed an IC50 of 47 nM.
`CC(C)(C)NC(=O)CN1[C@@H]2CC[C@H]1C[C@H](CNC(=O)C1C(C)(C)C1(C)C)C2` [Example 67] gave an IC50 of 42 nM.
`CC(C)(C)NC(=O)CN1[C@@H]2CC[C@H]1C[C@@H](CC(=O)NC13CC4CC(CC(C4)C1)C3)C2` [Example 129, N-(Adamantan-1-yl)-2-[(endo)-8-(tert-butylcarbamoyl)methyl-8-azabicyclo[3.2.1]octan-3-yl]acetamide] was tested, and the IC50 was 66 nM.
`COc1ccc2[nH]c(C[C@@H]3C[C@H]4CC[C@@H](C3)N4CC(=O)NC(C)(C)C)nc2c1OC` [Example 122] showed an IC50 of 138 nM.
Work on `COc1cc(Cl)cc(C(=O)NC[C@@H]2C[C@H]3CC[C@@H](C2)N3CC(=O)NC(C)(C)C)c1` [Example 53] yielded an IC50 of 49 nM.
`CC(C)(C)NC(=O)CN1[C@@H]2CC[C@H]1C[C@H](CNC(=O)c1ccc(F)cc1)C2` [Example 78] was tested, and the IC50 was 44 nM.
Work on `CC(C)(C)NC(=O)CN1[C@@H]2CC[C@H]1C[C@H](CNC(=O)c1ccc3c(c1)CCCO3)C2` [Example 59] yielded an IC50 of 61 nM.
`COc1cccc(OC(C)(C)C(=O)NC[C@@H]2C[C@H]3CC[C@@H](C2)N3CC(=O)NC(C)(C)C)c1` [Example 32] gave an IC50 of 98 nM.
In the case of `CC(C)(C)NC(=O)CN1[C@@H]2CC[C@H]1C[C@@H](CC(=O)NC13CC4CC(CC1C4)C3)C2` [Example 131], the IC50 is reported as 49 nM.
`CN(C(=O)CN1[C@@H]2CC[C@H]1C[C@H](CNC(=O)c1cc(F)cc(Cl)c1)C2)C(C)(C)C` [Example 118] gave an IC50 of 78 nM.
For `Cc1ccc(C(=O)NC[C@@H]2C[C@H]3CC[C@@H](C2)N3CC(=O)NC(C)(C)C)s1` [Example 81], the IC50 was 93 nM.
`COc1cc(C)cc(C(=O)NC[C@@H]2C[C@H]3CC[C@@H](C2)N3CC(=O)NC2(C(F)(F)F)CC2)c1` [Example 96] was tested, and the IC50 was 58 nM.

Reference: patent publication US9856250B2, “Substituted tropane derivatives” (TOA EIYO LTD., priority 2014, dated 2018)
